Tested on: HBsAg
Test: HBsAg assay (CLIA) in HepG2.2.15 cells
Type: cell-based, HBV
Settings: HepG2.2.15 cells, secreted HBsAg, CLIA; read-out: IC50 (HBsAg assay)
Experimental: HepG2.2.15 cells (Acs et al. Proc Natl Acad Sci USA, 84, (1987), 4641-4), a constitutively HBV-expressing cell line were cultured in DMEM+Glutamax-I medium (Invitrogen, Carlsbad, Calif., USA), supplemented with 10% fetal bovine serum (Invitrogen) and G418 (Invitrogen) at a final concentration of 200 mg/L and maintained in 5% CO2 at 37° C.
HepG2.2.15 cells were seeded in duplicate into white, 96-well plates at 1.5×10^4 cells/well. The cells were treated with a three-fold serial dilution series of the compounds in DMSO. The final DMSO concentration in all wells was 1% and DMSO was used as no drug control.
The HBsAg chemiluminescence immunoassay (CLIA) kit (Autobio Diagnostics Co., Zhengzhou, China, Catalog number: CL0310-2) was used to measure the levels of secreted HBV antigens semi-quantitatively. For the detection 50 μL/well culture supernatant was used and HBsAg was quantified using HBsAg chemiluminescence immunoassay (CLIA) kit (Autobio Diagnostics Co., Zhengzhou, China, Catalog number: CL0310-2), 50 μL of the supernatant was transferred to the CLIA assay plate and 50 μL of enzyme conjugate reagent was added into each well. The plates were sealed and gently agitated for 1 hour at room temperature. The supernatant-enzyme-mixture was discarded and wells were washed 6 times with 300 μL of PBS. The residual liquid was removed by plating the CLIA plate […] on absorbent tissue paper. 25 μL of substrates A and B were added to each well. Luminance was measured using a luminometer (Mithras LB 940 Multimode Microplate Reader) after 10 minutes incubation. Dose-response curves were generated and the IC50 value was extrapolated by using the E-WorkBook Suite (ID Business Solutions Ltd., Guildford, UK). The IC50 was defined as the compound concentration (or conditioned media log dilution) at which HBsAg secretion was reduced by 50% compared to the no drug control.
The compounds according to formula I were tested for their capacity to inhibit HBsAg as described herein.

Compound	IC50 [nM]
2,3-difluoro-5-[2-(2-pyridyl)-7,8-dihydro-5H-pyrido[4,3-d]pyrimidin-6-yl]phenol [Example 18]	22000

Same assay, conditions: Hepatitis B virus, HepG2.2.15, read-out: IC50 (HBsAg assay)

Compound	IC50 [nM]
CC1CN(c2ccc([N+](=O)[O-])cc2)Cc2cnc(-c3ccccn3)nc21 (stereo not shown) [Example 48, 8-methyl-6-(4-nitrophenyl)-2-(2-pyridyl)-7,8-dihydro-5H-pyrido[4,3-d]pyrimidine]	1380
O=C(NCCCCCO)c1cc(F)cc(N2CCc3nc(-c4ncccn4)ncc3C2)c1 [Example 107, 3-fluoro-N-(5-hydroxypentyl)-5-(2-pyrimidin-2-yl-7,8-dihydro-5H-pyrido[4,3-d]pyrimidin-6-yl)benzamide]	7120
COc1cc(N2CCc3cc(-c4ccccn4)ncc3C2)cc(F)c1F [Example 96, 2-(3,4-difluoro-5-methoxy-phenyl)-6-(2-pyridyl)-3,4-dihydro-1H-2,7-naphthyridine]	162
O=S(=O)(c1ccc(N2CCc3nc(-c4ccccn4)ncc3C2)cc1)C(F)(F)F [Example 12, 2-(2-pyridyl)-6-[4-(trifluoromethylsulfonyl)phenyl]-7,8-dihydro-5H-pyrido[4,3-d]pyrimidine]	13300
COc1ccc(-c2ncc3c(n2)CCN(c2ccc(S(C)(=O)=O)cc2)C3)nc1 [Example 5, 2-(5-methoxy-2-pyridyl)-6-(4-methylsulfonylphenyl)-7,8-dihydro-5H-pyrido[4,3-d]pyrimidine]	42100
COc1ccc(N2CCc3nc(-c4ccccn4)ncc3C2)cc1OC [Example 59, 6-(3,4-dimethoxyphenyl)-2-(2-pyridyl)-7,8-dihydro-5H-pyrido[4,3-d]pyrimidine]	9060
Clc1cc(N2CCc3nc(-c4ncccn4)ncc3C2)cc(Cl)n1 [Example 114, 6-(2,6-dichloro-4-pyridyl)-2-pyrimidin-2-yl-7,8-dihydro-5H-pyrido[4,3-d]pyrimidine]	1170
COc1cc(N2CCc3nc(-c4ccccn4)ncc3C2)ccc1C(=O)O [Example 65, 2-methoxy-4-[2-(2-pyridyl)-7,8-dihydro-5H-pyrido[4,3-d]pyrimidin-6-yl]benzoic acid]	18400
CCCc1nc(-c2ccccn2)nc2c1CN(c1ccc(S(C)(=O)=O)cc1)CC2 [Example 85]	8290
CS(=O)(=O)c1ccc(N2CCc3nc(-c4ccc(Cl)cn4)ncc3C2)cc1 [Example 6, 2-(5-chloro-2-pyridyl)-6-(4-methylsulfonylphenyl)-7,8-dihydro-5H-pyrido[4,3-d]pyrimidine]	18800
OCCOc1cc(N2CCc3nc(-c4ccccn4)ncc3C2)cc(F)c1F [Example 94, 2-[2,3-difluoro-5-[2-(2-pyridyl)-7,8-dihydro-5H-pyrido[4,3-d]pyrimidin-6-yl]phenoxy]ethanol]	660
CCOc1ccc(N2CCc3nc(-c4ccccn4)ncc3C2)cc1F [Example 54, 6-(4-ethoxy-3-fluoro-phenyl)-2-(2-pyridyl)-7,8-dihydro-5H-pyrido[4,3-d]pyrimidine]	3910
COc1cc(Cl)cc(N2CCc3nc(-c4ncccn4)ncc3C2)n1 [Example 115, 6-(4-chloro-6-methoxy-2-pyridyl)-2-pyrimidin-2-yl-7,8-dihydro-5H-pyrido[4,3-d]pyrimidine]	352
CNC(=O)c1cc(F)cc(N2CCc3nc(-c4ncccn4)ncc3C2)c1 [Example 103, 3-fluoro-N-methyl-5-(2-pyrimidin-2-yl-7,8-dihydro-5H-pyrido[4,3-d]pyrimidin-6-yl)benzamide]	2770
COc1cc(N2CCc3cc(-c4ncccn4)ncc3C2)cc(F)c1F [Example 95, 2-(3,4-difluoro-5-methoxy-phenyl)-6-pyrimidin-2-yl-3,4-dihydro-1H-2,7-naphthyridine]	61
CNS(=O)(=O)c1ccc(N2CCc3nc(-c4ccccn4)ncc3C2)cc1 [Example 8, N-methyl-4-[2-(2-pyridyl)-7,8-dihydro-5H-pyrido[4,3-d]pyrimidin-6-yl]benzenesulfonamide]	4180
c1cnc(-c2ncc3c(n2)CCN(c2nccs2)C3)nc1 [Example 119, 2-(2-pyrimidin-2-yl-7,8-dihydro-5H-pyrido[4,3-d]pyrimidin-6-yl)thiazole]	6080
Fc1cc(N2CCc3nc(-c4ccccn4)ncc3C2)cc(F)c1OCc1ccccc1 [Example 64, 6-(4-benzyloxy-3,5-difluoro-phenyl)-2-(2-pyridyl)-7,8-dihydro-5H-pyrido[4,3-d]pyrimidine]	1820

Compound	IC50 [nM]
COc1cc(N2CCc3nc(-c4ncccn4)ncc3C2)cc(F)c1Cl [Example 78, 6-(4-chloro-3-fluoro-5-methoxy-phenyl)-2-pyrimidin-2-yl-7,8-dihydro-5H-pyrido[4,3-d]pyrimidine]	19000
COC(=O)c1cc(F)cc(N2CCc3nc(-c4ncccn4)ncc3C2)c1 [Example 102, methyl 3-fluoro-5-(2-pyrimidin-2-yl-7,8-dihydro-5H-pyrido[4,3-d]pyrimidin-6-yl)benzoate]	11900
N#Cc1cc(F)cc(N2CCc3nc(-c4ncccn4)ncc3C2)c1 [Example 101, 3-fluoro-5-(2-pyrimidin-2-yl-7,8-dihydro-5H-pyrido[4,3-d]pyrimidin-6-yl)benzonitrile]	674
COc1cc(N2CCc3nc(-c4ccccn4)ncc3C2)ccc1F [Example 90, 6-(4-fluoro-3-methoxy-phenyl)-2-(2-pyridyl)-7,8-dihydro-5H-pyrido[4,3-d]pyrimidine]	933
Fc1cc(N2CCc3nc(-c4ccccn4)ncc3C2)ccc1Br [Example 52, 6-(4-bromo-3-fluoro-phenyl)-2-(2-pyridyl)-7,8-dihydro-5H-pyrido[4,3-d]pyrimidine]	1970
Fc1cc(N2CCc3nc(-c4ncccn4)ncc3C2)cc(F)n1 [Example 109, 6-(2,6-difluoro-4-pyridyl)-2-pyrimidin-2-yl-7,8-dihydro-5H-pyrido[4,3-d]pyrimidine]	4090
CN(C)S(=O)(=O)c1ccc(N2CCc3nc(-c4ccccn4)ncc3C2)cc1 [Example 9, N,N-dimethyl-4-[2-(2-pyridyl)-7,8-dihydro-5H-pyrido[4,3-d]pyrimidin-6-yl]benzenesulfonamide]	16900
CCCCOc1cc(N2CCc3nc(-c4ccccn4)ncc3C2)ccc1C(=O)O [Example 67, 2-butoxy-4-[2-(2-pyridyl)-7,8-dihydro-5H-pyrido[4,3-d]pyrimidin-6-yl]benzoic acid]	7800
CCOc1cc(N2CCc3nc(-c4ccccn4)ncc3C2)cc(F)c1F [Example 21, 6-(3-ethoxy-4,5-difluoro-phenyl)-2-(2-pyridyl)-7,8-dihydro-5H-pyrido[4,3-d]pyrimidine]	321
COc1cc(F)c(F)cc1N1CCc2nc(-c3ccccn3)ncc2C1 [Example 27, 6-(4,5-difluoro-2-methoxy-phenyl)-2-(2-pyridyl)-7,8-dihydro-5H-pyrido[4,3-d]pyrimidine]	3160
Fc1cc(Br)cc(N2CCc3nc(-c4ncccn4)ncc3C2)c1 [Example 41, 6-(3-bromo-5-fluoro-phenyl)-2-pyrimidin-2-yl-7,8-dihydro-5H-pyrido[4,3-d]pyrimidine]	500
FC(F)(F)Oc1cccc(N2CCc3nc(-c4ncccn4)ncc3C2)c1 [Example 43, 2-pyrimidin-2-yl-6-[3-(trifluoromethoxy)phenyl]-7,8-dihydro-5H-pyrido[4,3-d]pyrimidine]	1860
COc1cc(N2CCc3nc(-c4ccccn4)ncc3C2)ccc1Cl [Example 62, 6-(4-chloro-3-methoxy-phenyl)-2-(2-pyridyl)-7,8-dihydro-5H-pyrido[4,3-d]pyrimidine]	1340
CCC1CN(c2ccc(S(C)(=O)=O)cc2)Cc2cnc(-c3ccccn3)nc21 (stereo not shown) [Example 7, 8-ethyl-6-(4-methylsulfonylphenyl)-2-(2-pyridyl)-7,8-dihydro-5H-pyrido[4,3-d]pyrimidine]	5170
COc1ccc2ccc(N3CCc4nc(-c5ncccn5)ncc4C3)cc2n1 [Example 75, 6-(2-methoxy-7-quinolyl)-2-pyrimidin-2-yl-7,8-dihydro-5H-pyrido[4,3-d]pyrimidine]	2020
COc1cc(F)nc(N2CCc3nc(-c4ncccn4)ncc3C2)c1 [Example 99, 6-(6-fluoro-4-methoxy-2-pyridyl)-2-pyrimidin-2-yl-7,8-dihydro-5H-pyrido[4,3-d]pyrimidine]	100
COc1cc(N2CCc3nc(-c4ccccn4)ncc3C2)ccc1C#N [Example 60, 2-methoxy-4-[2-(2-pyridyl)-7,8-dihydro-5H-pyrido[4,3-d]pyrimidin-6-yl]benzonitrile]	371
COc1cc(N2CCc3nc(-c4ccccn4)ncc3C2)ncc1F [Example 71, 6-(5-fluoro-4-methoxy-2-pyridyl)-2-(2-pyridyl)-7,8-dihydro-5H-pyrido[4,3-d]pyrimidine]	330
